Test results taken from PMC4988494 (Nature, 2015).

Key:
[1] = biological target: A. niger Fdc^UbiX (A. niger Fdc1) (Aspergillus niger, UniProt A2QHE5); experiment: UV-Vis and activity, reversible inhibition; format: biochemical; conditions: prFMN-loaded enzyme
[2] = biological target: Aspergillus niger Fdc1 (Aspergillus niger) (UniProt A2QHE5); experiment: native MS

Row | Compound | UV-Vis and activity, reversible inhibition [1] | stoichiometry N [2]
1 | O=CCc1ccccc1 [phenylacetaldehyde] | incubation with phenylpyruvate or phenylacetaldehyde leads to reversible enzyme inhibition | –
2 | Aspergillus niger Fdc1 (from UniProt A2QHE5 1-500) (enzyme) | – | 2
